In ChEMBL document CHEMBL3399975, “Rational design of specific binding hairpin Py-Im polyamides targeting human telomere sequences” (Bioorg Med Chem, 2015):

How the values were obtained:
[1] = Selectivity ratio of KD for 5'-Biotin-GGTTAGAGTTAGGTTTTCCTAACTCTAACC-3' (unknown origin) to KD for human telomeric sequence
[2] = Binding affinity to human telomeric sequence in HBS-EP buffer at pH 7.4 at 25 degC by SPR analysis
[3] = Binding affinity to 5'-Biotin-GGTTAAGGTTAGGTTTTCCTAACCTTAACC-3' (unknown origin) in HBS-EP buffer at pH 7.4 at 25 degC by SPR analysis
[4] = Binding affinity to 5'-GGTTAGAGTTAGG-3'/3'-CCAATCTCAATCC-5' (unknown origin) assessed as change in melting temperature at pH 7 by UV-Vis spectrophotometry
[5] = Binding affinity to 5'-Biotin-GGTTAGAGTTAGGTTTTCCTAACTCTAACC-3' (unknown origin) in HBS-EP buffer at pH 7.4 at 25 degC by SPR analysis
[6] = Binding affinity to 5'-GGTTAAGGTTAGG-3'/3'-CCAATTCCAATCC-5' (unknown origin) assessed as change in melting temperature at pH 7 by UV-Vis spectrophotometry
[7] = species: Homo sapiens; assay: Binding affinity to human telomeric sequence assessed as change in melting temperature at pH 7 by UV-Vis spectrophotometry
[8] = Selectivity ratio of KD for 5'-Biotin-GGTTAAGGTTAGGTTTTCCTAACCTTAACC-3' (unknown origin) to KD for human telomeric sequence

| SMILES | Ratio [1] | Kd [2] [nM] | Kd [3] [nM] | ΔTm [4] [°C] | Kd [5] [nM] | ΔTm [6] [°C] | ΔTm [7] [°C] | Ratio [8] |
| --- | --- | --- | --- | --- | --- | --- | --- | --- |
| CN(CCCN)CCCNC(=O)CCNC(=O)c1nc(NC(=O)c2cc(NC(=O)c3cc(NC(=O)c4cc(NC(=O)[C@H](N)CCNC(=O)c5cc(NC(=O)c6nc(NC(=O)c7nccn7C)cn6C)cn5C)cn4C)cn3C)cn2C)cn1C | 17.3 | 1.76 | 0.627 | 22.4 | 30.4 | 29.3 | 27.8 | 0.36 |
| CN(CCCN)CCCNC(=O)CCNC(=O)c1cc(NC(=O)c2cc(NC(=O)c3cc(NC(=O)c4cc(NC(=O)[C@H](N)CCNC(=O)c5cc(NC(=O)c6nc(NC(=O)c7nccn7C)cn6C)cn5C)cn4C)cn3C)cn2C)cn1C | 24.6 | 0.431 | 0.00561 | 21.6 | 10.6 | 31.6 | 27.4 | 0.013 |
| CN(CCCN)CCCNC(=O)CCNC(=O)c1cc(NC(=O)c2cc(NC(=O)c3cc(NC(=O)c4cc(NC(=O)[C@H](N)CCNC(=O)c5cc(NC(=O)c6nc(NC(=O)c7nc(NC(=O)c8nccn8C)cn7C)cn6C)cn5C)cn4C)cn3C)cn2C)cn1C | 32.8 | 1.56 | 20.7 | 18.3 | 51.1 | 24.8 | 27.7 | 13.3 |
| CN(CCCNC(=O)CCNC(=O)c1nc(NC(=O)c2cc(NC(=O)c3cc(NC(=O)c4cc(NC(=O)[C@@H](CCNC(=O)c5cc(NC(=O)c6nc(NC(=O)c7nccn7C)cn6C)cn5C)NC(=O)COCCOCCNC(=O)c5nc(NC(=O)c6cc(NC(=O)c7cc(NC(=O)c8cc(NC(=O)[C@H](N)CCNC(=O)c9cc(NC(=O)c%10nc(NC(=O)c%11nccn%11C)cn%10C)cn9C)cn8C)cn7C)cn6C)cn5C)cn4C)cn3C)cn2C)cn1C)CCCNS(=O)(=O)c1ccc(C2=c3cc4c5c(c3Oc3c2cc2c6c3CCCN6CCC2)CCC[N+]=5CCC4)c(S(=O)(=O)[O-])c1 | – | 0.93 | – | – | – | – | – | – |
